The subject of assay [1] is cancer cell lines. Put plainly: MTT assay, panel of cancer cell lines. It is filed as cell-based. As to conditions: 72 h, summary over the cancer cell panel, read-out: IC50 for most cancer lines. The procedure: (§1) The cytotoxic potential of the synthesized compounds was investigated using the MTT assay after 72 h incubation with a panel of human and murine cancer cell lines, including colorectal carcinoma (HCT116), estrogen receptor-positive breast adenocarcinoma (MCF-7), triple-negative breast adenocarcinoma (MDA-MB-231), epidermoid carcinoma (KB3-1), myeloid leukemia (K562), and glioblastoma (U373), and mouse breast carcinoma (4T1) cells. To assess the selectivity of the compounds, pseudo-normal cell lines—human keratinocytes (HaCaTs) and mouse fibroblasts (NIH3T3s)—were also tested under the same conditions.
(§2) The substrate cells were seeded at a density of 5000 cells per 100 µL, while suspension K562 cells were seeded at 15,000 cells per 100 µL in 96-well plates and incubated overnight. Doxorubicin (Dox, Sigma-Aldrich, USA) was used as a reference drug. Studied substances were then added in 100 µL of culture medium, and the cells were further incubated for 72 h. Subsequently, 20 µL of MTT solution (5 mg/mL, Sigma-Aldrich, USA) was added to each well and incubated for 2–4 h. Formazan crystals were then solubilized by adding dimethyl sulfoxide (Sigma-Aldrich, USA). Absorbance was measured using a BioTek ELx800 Absorbance Reader (BioTek Instruments, Inc., Winooski, VT, USA). The results were analyzed and illustrated using GraphPad Prism (version 8.0.1; GraphPad Software, San Diego, CA, USA) and presented as a mean (M) ± standard deviation (SD). The IC50 values of the compounds were determined using nonlinear regression analysis in GraphPad Prism 10.4.2 [40].
In general terms: Tetrazolium dyes change colour on reduction, which living cells bring about.

Assay [2] concerns K562 cells. Description: MTT assay, 72 h, K562. Particulars: Homo sapiens, mean ± SD. It is filed as cell-based. The procedure: as §1
(§3) Human breast adenocarcinoma cells of MCF-7 and MDA-MB-231 lines, human glioblastoma cells of U373 line, human chronic myelogenous leukemia cells of K562 line, human colorectal carcinoma cells of HCT116 line, and human epidermoid carcinoma cells of KB3-1 line were kindly donated by a Collection of the Institute for Cancer Research at Vienna Medical University (Vienna, Austria). Human keratinocytes of HaCaT line, murine breast carcinoma cells of 4T1 line, and murine fibroblasts of the NIH3T3 line were obtained from the Cell Collection of the R.E. Kavetsky Institute of Experimental Pathology, Oncology and Radiobiology of the National Academy of Sciences of Ukraine (Kyiv, Ukraine). MCF-7, MDA-MB-231, U373, K562, HaCaT, and NIH3T3 cells were cultured in DMEM medium (Sigma-Aldrich, Burlington, MA, USA) supplemented with 2 mM L-glutamine, 4500 mg/L glucose, and 1 mM sodium pyruvate. HCT116 and KB3-1 cells were maintained in RPMI-1640 medium supplemented with 2 mM L-glutamine (Sigma-Aldrich, USA). Both media were supplemented with 10% fetal bovine serum (Sigma-Aldrich, USA). All cell lines were incubated at 37 °C in a humidified atmosphere containing 5% CO2.
as §2

Assay [3] deals with 4T1 cells. Description: MTT assay, 72 h, 4T1. The format is cell-based. Particulars: Mus musculus, mean ± SD. The method, then:
as §1, §3, §2

Assay [4] has as its system HaCaT cells. Description: MTT assay, 72 h, HaCaT (pseudo-normal). The format is cell-based. Particulars: Homo sapiens, mean ± SD. The procedure:
as §1, §3, §2

The subject of assay [5] is U373 cells. Put plainly: MTT assay, 72 h, U373. It is filed as cell-based. As to conditions: Homo sapiens, U373 MG, mean ± SD. The procedure:
as §1, §3, §2

The subject of assay [6] is MCF-7 cells. Description: MTT assay, 72 h, MCF-7. It is filed as cell-based. As to conditions: Homo sapiens, MCF7, mean ± SD. The method, then:
as §1, §3
as §2, with “Doxorubicin (Dox, Sigma-Aldrich, USA) was used as a reference drug.” left out

For assay [7], the system named is NIH3T3 cells. Put plainly: MTT assay, 72 h, NIH3T3 (pseudo-normal). The format is cell-based. As to conditions: Mus musculus, mean ± SD. The procedure: as §1, §3, §2
In assay [8] the test system is KB3-1 cells. Put plainly: MTT assay, 72 h, KB3-1. It is filed as cell-based. Particulars: Homo sapiens, KB 3-1, mean ± SD. The method, then: as §1, §3, §2
Assay [9] relates to HCT116 cells. Description: MTT assay, 72 h, HCT116. The format is cell-based. As to conditions: Homo sapiens, HCT-116, mean ± SD. The method, then:
as §1, §3, §2

The subject of assay [10] is MDA-MB-231 cells. Put plainly: MTT assay, 72 h, MDA-MB-231. As to conditions: Homo sapiens, mean ± SD. It is filed as cell-based. The procedure: as §1, §3, §2
Assay [11] has as its system p53 expression in A549 lung cancer cells. The arrangement: method as in PMID 38920636. As to conditions: A549 lung cancer cells ref 34; cited from earlier work.
For assay [12], the system named is PPARγ. The arrangement: method as in PMID 38920636. As to conditions: cited from earlier work.
Assay [13] concerns p53 expression in normal BJ cells. The arrangement: method as in PMID 38920636. Particulars: normal BJ cells ref 34; cited from earlier work.

As a reminder, the IC50 is the concentration that gives 50% inhibition. `CCOc1ccc(/C=C2\SC3(C(=O)Nc4ccc(Br)cc43)N(c3ccc(Br)cc3)C2=O)cc1` (stereo not drawn) [Compound 14, (Z)-5-Bromo-3′-(4-bromophenyl)-5′-(4-ethoxybenzylidene)spiro[indoline-3,2′-thiazolidine]-2,4′-dione]: the IC50 was more than 100 µM in assay [1]; more than 100 µM in [2]; more than 100 µM in assay [3]; more than 100 µM in assay [4]; 89.52 ± 0.81 µM in assay [5]; more than 100 µM in assay [6]. Also, the concentration for half-maximal inhibition (IC50) in [7] is more than 100 µM; in assay [8] it was 19.6 ± 0.23 µM; in [9], more than 100 µM; in assay [10], 60.2 ± 0.62 µM.

With `COc1ccc(N2C(=O)/C(=C/c3ccc(N4CCOCC4)cc3)SC23C(=O)Nc2ccc(Cl)cc23)cc1` (stereo not drawn) [Compound 8, (Z)-5-Chloro-3′-(4-methoxyphenyl)-5′-(4-morpholinobenzylidene)spiro[indoline-3,2′-thiazolidine]-2,4′-dione], the IC50 in assay [1], in [2], in assay [3], in assay [4], in [5] and in assay [6] was more than 100 µM throughout. Besides, the IC50 in [7] is more than 100 µM; in [8], 75.9 ± 4.21 µM; in [9] it was more than 100 µM; in assay [10], more than 100 µM.

As to `CC(C)(C)c1ccc(/C=C2\SC3(C(=O)Nc4ccc(F)cc43)N(Cc3ccccc3)C2=O)cc1` (stereo not drawn) [Compound 18, (Z)-3′-Benzyl-5′-(4-(tert-butyl)benzylidene)-5-fluorospiro[indoline-3,2′-thiazolidine]-2,4′-dione], the IC50 in assay [1] was 6.67 to 8.37 µM; in assay [2], 37.4 ± 0.49 µM; in assay [3] it was 46.7 ± 1.19 µM; in [4] it was more than 100 µM; in assay [5] it was 29.8 ± 0.35 µM; in [6] it was 6.99 ± 0.16 µM. For the same compound, the IC50 was 98.39 ± 0.66 µM in assay [7], 7.92 ± 0.65 µM in assay [8], 8.37 ± 0.51 µM in assay [9] and 6.67 ± 0.15 µM in assay [10].

On to `O=C1CSC2(C(=O)Nc3ccc(F)cc32)N1Cc1ccccc1` (stereo not drawn) [Compound 4, 3′-Benzyl-5-fluorospiro[indoline-3,2′-thiazolidine]-2,4′-dione], for which the IC50 in assay [2] was 88.8 ± 4.06 µM; in assay [3], 91.8 ± 1.55 µM; in assay [4], more than 100 µM; in assay [5], 98.6 ± 1.92 µM; in assay [6], more than 100 µM; in [7], more than 100 µM. The IC50 in assay [8] was 60.2 ± 0.72 µM; in [9], more than 100 µM; in assay [10], 99.21 ± 0.41 µM.

Take `CC(C)(C)c1ccc(/C=C2\SC3(C(=O)Nc4ccc(Cl)cc43)N(Cc3ccccc3)C2=O)cc1` (stereo not drawn) [Compound 17, (Z)-3′-Benzyl-5′-(4-(tert-butyl)benzylidene)-5-chlorospiro[indoline-3,2′-thiazolidine]-2,4′-dione]: the IC50 in assay [2] came to 67.9 ± 0.81 µM; in assay [3], 66 ± 4.48 µM; in assay [4], 10.6 ± 0.21 µM; in assay [5] it was 32.26 ± 0.25 µM; in assay [6] it was 6.64 ± 0.39 µM; in assay [7] it was 91 ± 1.34 µM. Besides, the results for the 50% inhibitory concentration (IC50) in assay [8], in [9] and in assay [10] were 5.85 ± 0.42 µM, 8.24 ± 0.26 µM and 13.5 ± 2.21 µM, respectively.

In the case of `COc1ccc(N2C(=O)/C(=C/c3ccc(-c4ccccn4)cc3)SC23C(=O)Nc2ccc(Cl)cc23)cc1` (stereo not drawn) [Compound 12, (Z)-5-Chloro-3′-(4-methoxyphenyl)-5′-(4-(pyridin-2-yl)benzylidene)spiro[indoline-3,2′-thiazolidine]-2,4′-dione], the IC50 in assay [2], in assay [3], in assay [4], in [5], in [6] and in assay [7] was more than 100 µM in each case. The IC50 in [8] is 0.97 ± 0.11 µM; in [9] it was more than 100 µM; in assay [10], more than 100 µM.

As to `CC(C)c1ccc(/C=C2\SC3(C(=O)Nc4ccccc43)N(c3ccc(Cl)cc3)C2=O)cc1` (stereo not drawn) [Les-3467], the values for the p53 expression entry in assay [11] and in assay [13] were “decreasing it” and “increasing its levels”, respectively. Also, the PPARγ modulation entry in [12] is recorded as “acts as a PPARγ modulator”.

On to `COc1ccc(N2C(=O)/C(=C/c3ccc(Cl)cc3)SC23C(=O)Nc2ccc(Cl)cc23)cc1` (stereo not drawn) [Compound 7, (Z)-5-Chloro-5′-(4-chlorobenzylidene)-3′-(4-methoxyphenyl)spiro[indoline-3,2′-thiazolidine]-2,4′-dione], for which the IC50 was determined as 27.7 ± 3.02 µM in assay [2]; 29 ± 0.92 µM in assay [3]; 8.63 ± 0.57 µM in assay [4]; 72.3 ± 0.8 µM in assay [5]; 52.2 ± 2.15 µM in assay [6]; 79.7 ± 0.93 µM in assay [7]. The IC50 in assay [8] is 17.2 ± 0.21 µM; in assay [9], more than 100 µM; in assay [10], 8.55 ± 0.06 µM.

Turning to `O=C1/C(=C/c2ccc(Cl)cc2)SC2(C(=O)Nc3ccc(Cl)cc32)N1c1ccc(Cl)cc1` (stereo not drawn) [Compound 11, (Z)-5-Chloro-5′-(4-chlorobenzylidene)-3′-(4-chlorophenyl)spiro[indoline-3,2′-thiazolidine]-2,4′-dione], the IC50 in assay [2] was 74.35 ± 0.66 µM; in assay [3] it was 5.66 ± 0.27 µM; in [4] it was 8.67 ± 0.49 µM; in assay [5], 66.9 ± 0.83 µM; in assay [6], 6 ± 0.28 µM; in assay [7], more than 100 µM. Besides, the IC50 in assay [8] is 6.95 ± 0.14 µM; in assay [9], more than 100 µM; in [10], 6.37 ± 0.11 µM.
